Where “and” joins values, the source holds several entries; their conditions need not be identical. Identical values can stand only once.
Tests used:
Format in all cases: cell-based
[1] = test system: Panc1 (pancreatic carcinoma) cells; experiment: MTT cytotoxicity assay, Panc1; details: Homo sapiens, PANC-1, 48 h treatment
Method: (§1) The cell lines PANC-1 (pancreatic carcinoma), MCF7 (breast carcinoma), HepG2 (hepatocellular carcinoma), and WI-38 (normal lung fibroblast cells) were obtained from the American Type Culture Collection (ATCC) located in Manassas, Virginia, United States. These cell lines were cultured in DMEM (Invitrogen, Life Technologies, Rockville, MD, USA) medium supplemented with 10% FBS (Fetal Bovine Serum, Hyclone, Thermo Fisher Scientific, Waltham, MA, USA) and 1% penicillin (Sigma-Aldrich, Louis, MO, USA). The cells were maintained at 37°C in a 5% CO2 and 95% humidity environment for a maximum period of two weeks to ensure their viability for further experimentation. Cell detachment was achieved using a solution containing 0.25% (w/v) trypsin (Sigma-Aldrich, Louis, MO, USA) and 0.53 mM EDTA ((Sigma-Aldrich, Louis, MO, USA), followed by re-cultivation in fresh media.
The cultivated cells were seeded in 96-well plates at a concentration of 1 × 10^4 cells/100 μL per well (Naik et al. [2014]). The cultured plates were then incubated for 24 hours at 37°C. […] The tested concentrations of the compounds (1, 10, 30, and 100 µg/mL) in 0.01 - 0.1% DMSO in ddH2O were prepared by diluting the stock solutions with double-distilled water (ddH2O). […] A negative control using 0.1% DMSO in ddH2O was also included. The treated cells were further incubated for 48 hours at 37 °C. The media of the treated and control plates were removed and replaced by fresh media containing MTT (Sigma, Louis, MO, USA) reagent in a concentration of 1 mg/mL (Ponnusamy et al. [2016]), then incubated for 2 hours. The viability of the cancer cells was determined by measuring the amount of formazan formed by viable cells. […] The intensity of the produced colour was measured using an ELISA plate reader (Bio-Tek EL 800, Agilent technology, Santa Clara, CA, USA) at wavelength of 570 nm. The percent of cells viability was calculated by the following equation: %viability=AA570oftreated-AA570ofblank/AA570ofcontrol-AA570ofblank×100
(§2) AA Average of triplicate absorbances for each sample concentration

[2] = test system: HepG2 (hepatocellular carcinoma) cells; experiment: MTT cytotoxicity assay, HepG2; details: Homo sapiens, 48 h treatment
Method: as §1, with “Cell detachment was achieved using a solution containing 0.25% (w/v) trypsin (Sigma-Aldrich, Louis, MO, USA) and 0.53 mM EDTA ((Sigma-Aldrich, Louis, MO, USA), followed by re-cultivation in fresh media.” left out
(§3) The cultivated cells were seeded in 96-well plates at a concentration of 1 × 10^4 cells/100 μL per well (Naik et al. [2014]). […] The viability of the cancer cells was determined by measuring the amount of formazan formed by viable cells. […] The intensity of the produced colour was measured using an ELISA plate reader (Bio-Tek EL 800, Agilent technology, Santa Clara, CA, USA) at wavelength of 570 nm. The percent of cells viability was calculated by the following equation: %viability=AA570oftreated-AA570ofblank/AA570ofcontrol-AA570ofblank×100
as §2

[3] = test system: MCF7 (breast carcinoma) cells; experiment: MTT cytotoxicity assay, MCF7; details: Homo sapiens, 48 h treatment
Method: as §1, with “Cell detachment was achieved using a solution containing 0.25% (w/v) trypsin (Sigma-Aldrich, Louis, MO, USA) and 0.53 mM EDTA ((Sigma-Aldrich, Louis, MO, USA), followed by re-cultivation in fresh media.” left out
as §3, §2

[4] = MTT cytotoxicity assay, WI-38 normal cells; details: human, WI-38 normal lung fibroblast cells, 48 h treatment, read-out: Cytotoxicity IC50 WI38
Method: as §1, with “Cell detachment was achieved using a solution containing 0.25% (w/v) trypsin (Sigma-Aldrich, Louis, MO, USA) and 0.53 mM EDTA ((Sigma-Aldrich, Louis, MO, USA), followed by re-cultivation in fresh media.” left out
as §3, §2

[5] = test system: WI-38 (normal lung fibroblast cells); experiment: MTT cytotoxicity assay, WI-38 normal cells; details: 48 h treatment, read-out: Cytotoxicity IC50 WI38
Method: as §1, with “Cell detachment was achieved using a solution containing 0.25% (w/v) trypsin (Sigma-Aldrich, Louis, MO, USA) and 0.53 mM EDTA ((Sigma-Aldrich, Louis, MO, USA), followed by re-cultivation in fresh media.” left out
as §3, §2

Panc1 cells [6] = experiment: Flow cytometry analysis of cell DNA contents / cell cycle (propidium iodide); details: 10 µM
Method: All reagents and kits for this assay were obtained from Abcam (Abcam Technology, Boston, MA, USA). The detection of DNA cell contents and cell cycle status was conducted following the established method (Xu et al. [2001]). To provide a brief overview, Panc1 pancreatic cancer cells (ATCC, Manassas, Virginia, USA) were cultured in a single-cell suspension in DMEM medium (Invitrogen, Life Technologies, Rockville, MD, USA). Subsequently, the cells were fixed in 66% ethanol (Sigma-Aldrich, Louis, MO, USA) and kept on ice for 2 hours. Afterward, the cancer cells were washed with a PBS (Sigma-Aldrich, Louis, MO, USA) solution (5 mL of 10X PBS + 45 mL water), re-cultured in fresh medium, and incubated at 37 °C for 24 hours. A concentration of 10 µM of (Z)-3-hexenyl-β-D-glucopyranoside was added in triplicate, chosen based on previously reported data (Ponnusamy et al. [2016]; Xu et al. [2001]) for 24h. The second dose of 10 µM of (Z)-3-hexenyl-β-D-glucopyranoside was added to the Panc1 cells then incubated for 24 h. Following a 48-hour incubation period from the first dose, the cells were trypsinized, fixed, and stained with propidium iodide-RNase enzyme reagent (9.45 mL PBS + 500 μL 20X propidium iodide + 50 μL 200X RNase) from Abcam Technology, Boston, MA, USA. […] The incubation time for fluorescence quantification was 30 minutes. The experiment was repeated twice.

Panc1 cells [7] = experiment: Annexin V-FITC cellular apoptotic assay; details: 10 µM, 48 h
Method: The reagents used in this assay included the Annexin V-FITC kit (Abcam Technology, Boston, MA, USA), 1X binding buffer (Abcam Technology, Boston, MA, USA), and propidium iodide (Bio Vision Research Products, Mountain View, CA, USA). Panc1 cells were seeded in 6-well plates and incubated at 37 °C for 24 hours. Compound 1 ((Z)-3-hexenyl-β-D-glucopyranoside) was then added to the cultivated Panc1 6-well plates at a concentration of 10 µM and incubated for 48 hours. Subsequently, the cancer cells were trypsinized and centrifuged for 10 minutes at 300 rpm. The resulting precipitate was resuspended in 500 µL of 1X binding buffer. Annexin V-FITC (5 µL) and propidium iodide (5 µL) reagents were added to the treated cancer cell plates and incubated for 5 minutes in the dark at room temperature. A flow cytometer (Novocyte, Agilent technology, Santa Clara, CA, USA) with an excitation maximum of 488 nm and an emission maximum of 530 nm was employed to measure the intensity of annexin-binding phosphatidylserine (PS) and consequently determine the amount of apoptotic cells (Koopman et al. [1994]).

[8] = test system: Casp3 gene expression in Panc1 cells; experiment: SYBR Green RT-PCR gene expression, caspase3; details: 48 h, (Z)-3-hexenyl-β-D-glucopyranoside at 10 µM, control 1
Method: (§4) The effects of 10 µM of (Z)-3-hexenyl-β-D-glucopyranoside on the mRNA expression of caspase3, bax, and Bcl-2 genes were investigated using the reverse transcription-polymerase […] technique. After a 48-hour incubation of (Z)-3-hexenyl-β-D-glucopyranoside in Panc1 (pancreatic carcinoma) cells, mRNA isolation of the selected proteins was performed using the RN easy extraction kit (Qiagen, Hilden, Germany), following previously described methods (Janicke et al. [1998]). For real-time quantitative PCR of the RNA templates, a one-step RT-PCR kit with SYBR® Green (Bio-Rad SYBR Green PCR MMX, Hercules, California, USA) was added to a 25 μL 2X SYBR® Green RT-PCR reaction mix (Bio-Rad, Hercules, California, USA). The reaction mix contained 2X reaction buffer with 0.4 mM of each dNTP, magnesium chloride, iTaq DNA polymerase, 20 nM fluorescein SYBR® Green I dye, stabilizers, 11 μL nuclease-free water, 1.5 μL reverse primer (10 μM), 1.5 μL forward primer (10 μM), 1 μL iScript reverse transcriptase, and RNA template (1 pg to 100 ng total RNA). The cDNA synthesis and PCR amplifications were performed in the same tube using Rotor-Gene RT-PCR (Qiagen, Hilden, Germany) software 1.7 (Abed et al. [2021]). The primers used in the RT-PCR reaction were obtained from Corbett Life Science Division (Reg. No. QEC21313), Corbett Research, Mortlake, Australia. […]

[9] = test system: Bax gene expression in Panc1 cells; experiment: SYBR Green RT-PCR gene expression, Bax; details: 48 h, (Z)-3-hexenyl-β-D-glucopyranoside at 10 µM, control 1.436
Method: as §4

[10] = test system: Bcl-2 gene expression in Panc1 cells; experiment: SYBR Green RT-PCR gene expression, Bcl-2; details: 48 h, (Z)-3-hexenyl-β-D-glucopyranoside at 10 µM, control 1
Method: as §4

SMILES | IC50 [1] [µM] | IC50 [2] [µM] | IC50 [3] [µM] | IC50 at 48 h [4] [µM] | IC50 [5] [µM] | Cell cycle effect (Comment) (Panc1 cells [6]) | DNA content %G2/M (Panc1 cells [6]; control 10.47) [%] | DNA content %S (Panc1 cells [6]; control 32.11) [%] | DNA content %G0-G1 (Panc1 cells [6]; control 57.42) [%] | Cell cycle effect (Comment) (Panc1 cells [6]; listed as E-W-4) | Necrosis (Panc1 cells [7]) [%] | Apoptosis Late (Panc1 cells [7]; control 0.28%) [%] | Apoptosis Early (Panc1 cells [7]; control 0.47%) [%] | Apoptosis Total (Panc1 cells [7]; control 1.86%) | RT-PCR results fold change Casp3 [8] [fold] | RT-PCR results fold change Bax [9] [fold] | RT-PCR results fold change Bcl-2 [10] [fold]
CCC=CCCOC1OC(CO)C(O)C(O)C1O [Compound 1, (Z)-3-hexenyl-β-D-glucopyranoside] | 7.6 | 45.8 | 109 | 194 | 195 | cell growth arrest at the S phase | 3.38 | 44.01 | 52.61 | Cell growth arrest@ S phase | 5.52 | 9.85 | 26.15 | 42% and 41.52% | 4.064 | 3.173 | 0.231
O=C(O)c1cc(O)c(O)c(O)c1 [Gallic acid] | 21.8 | – | – | – | – | – | – | – | – | – | – | – | – | – | – | – | –
Oc1cccc(O)c1O [Pyrogallol] | 198 | – | – | – | – | – | – | – | – | – | – | – | – | – | – | – | –

— publication PMC10933169, “Potent anticancer activity of (Z)-3-hexenyl-β-D-glucopyranoside in pancreatic cancer cells” (Naunyn-Schmiedeberg's Archives of Pharmacology, 2023)
